Results published in patent CN102743371A, “一种治疗视网膜新生血管性疾病的药物” (SPECIALTY OF OPHTHALMOLOGY RESEARCH INSTITUTE SHANDONG PROV, priority 2012, dated 2012).

Experiments:
VEGF-A = assay: Western blot of VEGF-A protein in retina of OIR mice (PBS control group and FUT-175 treated group); format: in vivo, mouse; conditions: retina total protein
[1] = test system: retinal neovascularization (视网膜新生血管); assay: Oxygen-induced retinopathy (OIR) mouse model; retinal flat mount with FITC-conjugated isolectin-B4, fluorescence microscopy of retinal neovascularization at P17; format: in vivo

With `N=C(N)c1ccc2cc(OC(=O)c3ccc(N=C(N)N)cc3)ccc2c1` [甲磺酸萘莫司他] the VEGF-A expression change (VEGF-A; C3aR and C5aR knockout) was “无检测到VEGF-A的表达变化”, the VEGF-A protein expression (VEGF-A; C57BL/6J) was “可调节VEGF-A的蛋白表达” and the “change in retinal neovascularization growth after injection” value ([1]; C3aR-/- and C5aR-/- mice, same OIR treatment) was “变化并不明显”. The fundus vessel growth ([1]; C57BL/6J mice, OIR (75% oxygen from P7 for 5 d), 50 mg/kg i.p. daily from P12, evaluated at P17) was “血管生长趋于正常” and the “inhibition of RNV growth” value ([1]; C57BL/6J mice, OIR (75% oxygen from P7 for 5 d), 50 mg/kg i.p. daily from P12, evaluated at P17, fluorescence microscopy) was “能够明显抑制RNV的生长”.
